Source: the Deep4Chem optical property database
Values belong to the molecule of their own block, whether it stands above or below them.

Test: solvent given as SMILES
[1] = in O=P(c1ccccc1)(c1ccccc1)c1ccccc1Oc1ccccc1P(=O)(c1ccccc1)c1ccccc1

emission maximum (in ClCCl): 722 nm
Structure (SMILES): COc1ccc(C2=C3C(/C=C/c4cc(OC)c(OC)c(OC)c4)=C(C=O)C(/C=C/c4cc(OC)c(OC)c(OC)c4)=[N+]3[B-](F)(F)n3c(/C=C/c4cc(OC)c(OC)c(OC)c4)c(C=O)c(C=Cc4cc(OC)c(OC)c(OC)c4)c32)cc1

Structure (SMILES): Cc1cc(-n2c3ccccc3c3cc4c(cc32)C2c3ccccc3C4c3ccccc32)ccc1-c1nc(-c2ccccc2)nc(-c2ccccc2)n1
emission maximum (in Cc1ccccc1): 429 nm | emission maximum [1]: 444 nm

emission maximum (in CCO): 533 nm | emission maximum (in ClCCl): 507 nm
Structure (SMILES): CCN(CC)c1ccc2cc(C#N)/c(=N\C(=O)c3ccc(F)cc3)oc2c1

Structure (SMILES): O=P(c1ccccc1)(c1ccccc1)n1c2ccccc2c2cc(-n3c4ccccc4c4cc(-n5c6ccccc6c6ccccc65)ccc43)ccc21
emission maximum (in C1CCOC1): 373 nm | emission maximum (in CC(C)=O): 374 nm | emission maximum (in Cc1ccccc1): 373 nm | emission maximum (in ClCCl): 381 nm

emission maximum (in CC#N): 535 nm
Structure (SMILES): Cc1ccc(-c2sc(/C(C#N)=C/c3ccc(C#N)cc3)nc2-c2ccc(Cl)cc2)cc1

emission maximum (in CC#N): 549 nm | emission maximum (in CCO): 557 nm | emission maximum (in CN(C)C=O): 532 nm | emission maximum (in O): 555 nm
Structure (SMILES): CCN(CC)c1ccc2cc3ccc(=[N+](CC)CC)cc-3oc2c1

emission maximum (in ClC(Cl)Cl): 502 nm
Structure (SMILES): CC(C)c1cccc(C(C)C)c1-n1c(=O)c2cc3nc(-c4ccccc4)c4cc5c(=O)n(-c6c(C(C)C)cccc6C(C)C)c(=O)c6cc7nc(-c8ccccc8)c8cc(c1=O)c2c1c3c4c(c65)c7c81

emission maximum (in ClCCl): 465 nm
Structure (SMILES): CCOC(=O)/N=c1/oc2c(OC)cccc2cc1C#N

emission maximum (in ClC(Cl)Cl): 663 nm
Structure (SMILES): CCCCCCCCN1C(=O)c2ccc3c4c(-c5ccc6c(c5)c5ccccc5n6-c5ccccc5)cc5c6c(cc(-c7ccc8c(c7)c7ccccc7n8-c7ccccc7)c(c7ccc(c2c37)C1=O)c64)C(=O)N(CCCCCCCC)C5=O

emission maximum (in ClCCl): 655 nm
Structure (SMILES): CCCCC1C(=O)c2cc(Oc3ccc(C(C)(C)C)cc3)c3c4c(Oc5ccc(C(C)(C)C)cc5)cc5c6c(cc(Oc7ccc(C(C)(C)C)cc7)c(c7c(Oc8ccc(C(C)(C)C)cc8)cc(c2c37)C1=O)c64)C1=C(C5=O)c2ccc3ccccc3[n+]2[B-](F)(F)O1 (configuration not stated)

emission maximum (in ClCCl): 686 nm
Structure (SMILES): COc1ccc(C2=C3C(/C=C/c4cc(OC)c(OC)c(OC)c4)=C(C=O)C(C)=[N+]3[B-](F)(F)n3c(/C=C/c4cc(OC)c(OC)c(OC)c4)c(C=O)c(C=Cc4cc(OC)c(OC)c(OC)c4)c32)cc1

emission maximum (in ClCCl): 724 nm
Structure (SMILES): Fc1ccc(C2=[N+]3C(=Nc4c5ccccc5c(-c5ccc(F)cc5)n4[B-]3(F)F)c3ccccc32)cc1

emission maximum (in ClCCl): 436 nm
Structure (SMILES): Fc1ccc(C#Cc2nc(C#Cc3ccc(F)cc3)c(C#Cc3ccc(F)cc3)c(C#Cc3ccc(F)cc3)c2C#Cc2ccc(F)cc2)cc1

emission maximum (in C1CCOC1): 424 nm | emission maximum (in CCCCCC): 414 nm | emission maximum (in CCO): 429 nm | emission maximum (in CS(C)=O): 431 nm
Structure (SMILES): COc1ccc2cc(-c3ccc(C)cc3)c(=O)oc2c1

Structure (SMILES): Cc1cc(C)c(B(c2c(C)cc(C)cc2C)c2ccc3ccc4cccc5ccc2c3c45)c(C)c1
emission maximum (in Cc1ccccc1): 423 nm

emission maximum (in CC(C)O): 576 nm | emission maximum (in CCO): 573 nm | emission maximum (in CO): 571 nm | emission maximum (in O): 566 nm
Structure (SMILES): O=C([O-])c1c(Cl)c(Cl)c(Cl)c(Cl)c1-c1c2cc(I)c(=O)c(I)c-2oc2c(I)c([O-])c(I)cc12

Structure (SMILES): c1ccc(-c2cc(-c3nnc(-c4ccc(N5c6ccccc6Oc6ccccc65)cc4)o3)c(-c3ccccc3)c(-c3ccccc3)c2-c2ccccc2)cc1
emission maximum (in Cc1ccccc1): 495 nm | emission maximum (in c1ccc(-n2c(-c3c(-n4c5ccccc5c5ccccc54)cccc3-n3c4ccccc4c4ccccc43)nc3ccccc32)cc1): 495 nm

emission maximum (in ClCCl): 475 nm
Structure (SMILES): COC(=O)c1[nH]c(-c2ccccc2)c2nnc3ccc(OC)cc3c12

emission maximum (in CC#N): 602 nm
Structure (SMILES): O=[N+]([O-])c1ccc(/C=C/c2nc3c4ccccc4c4ccccc4c3o2)cc1

emission maximum (in C1CCOC1): 409 nm | emission maximum (in CC#N): 407 nm | emission maximum (in CCOC(C)=O): 410 nm | emission maximum (in CS(C)=O): 406 nm | emission maximum (in ClC(Cl)Cl): 411 nm
Structure (SMILES): N#Cc1cc2ccccc2oc1=N

emission maximum (in O): 559 nm
Structure (SMILES): CCn1c2ccc(S(=O)(=O)O)cc2c(=O)c2cc3c(cc21)c(=O)c1cc(S(=O)(=O)O)ccc1n3CCCCCC(=O)O

emission maximum (in CO): 655 nm
Structure (SMILES): C#CCOc1ccc(/C=C/C2=[N+]3C(=C(c4ccc(N(CC)CC)cc4)c4c(C)cc(/C=C/c5ccc(OCC(=O)OC)cc5)n4[B-]3(F)F)C(C)=C2)cc1

emission maximum (in C1CCOC1): 468 nm
Structure (SMILES): COc1cc2c(cc1-c1ccc(F)cc1)Cc1c3c(c4c(c1-2)-c1cc(OC)c(-c2ccc(F)cc2)cc1C4)C(=O)N(CCC(C)C)C3=O

emission maximum (in C1CCCCC1): 403.35 nm | emission maximum (in CC#N): 514.77 nm | emission maximum (in ClCCl): 472.82 nm
Structure (SMILES): O=S1(=O)c2ccccc2-c2cc(-c3c4ccccc4cc4ccccc34)ccc21

emission maximum (in ClCCl): 388 nm
Structure (SMILES): CCCCC(CC)COc1cc(OCC(CC)CCCC)c2c#cc3ccc4c(c3)c3cc(c#cc5cc(c#cc6ccc7c(c6)c6cc(c#cc1c2)ccc6n7CC(CC)CCCC)c(C(CCCC)OCCC)cc5C(CCCC)OCCC)ccc3n4CC(CC)CCCC (configuration not stated)

Structure (SMILES): Cc1cc(-c2nc(-c3ccccc3)nc(-c3ccccc3)n2)ccc1N1c2ccccc2[Si](c2ccccc2)(c2ccccc2)c2ccccc21
emission maximum (in Cc1ccccc1): 459 nm | emission maximum [1]: 460 nm

emission maximum (in CC#N): 455 nm | emission maximum (in CCO): 492 nm
Structure (SMILES): CC1(C)CC(=O)c2cc(F)cc(F)c2N1

Structure (SMILES): CCCCN1\C(=C/C=C/C=C/C2=[N+](CCCC)c3ccc4ccccc4c3C2(C)C)C(C)(C)c2c1ccc1ccccc21
emission maximum (in C1CCOC1): 710 nm | emission maximum (in CC#N): 698 nm | emission maximum (in CC(C)=O): 701 nm | emission maximum (in CCO): 704 nm | emission maximum (in CN(C)C=O): 705 nm | emission maximum (in CO): 701 nm | emission maximum (in CS(C)=O): 709 nm | emission maximum (in ClCCl): 713 nm

emission maximum (in C1CCOC1): 406 nm
Structure (SMILES): CC(C)(C)c1ccc(-c2c(-c3ccc(-n4c5ccccc5c5ccccc54)cc3)c(C#N)c(-c3ccc(-n4c5ccccc5c5ccccc54)cc3)c(-c3ccc(C(C)(C)C)cc3)c2-c2ccc(C(C)(C)C)cc2)cc1

emission maximum (in C1CCOC1): 412 nm | emission maximum (in CC#N): 408 nm | emission maximum (in CCOC(C)=O): 414 nm | emission maximum (in CS(C)=O): 409 nm | emission maximum (in ClC(Cl)Cl): 415 nm
Structure (SMILES): N#Cc1cc2ccc(O)cc2oc1=N

emission maximum (in C1CCCCC1): 598 nm
Structure (SMILES): CCCCC#Cc1cccc2cc(CCCC)c3cc(-c4cc[b-]5c(c4)c(CCCC)cc4cccc(C#CCCCC)[n+]54)cc[b-]3[n+]12

Structure (SMILES): c1ccc(-c2nc(-c3ccc(-c4ccc(N(c5ccccc5)c5ccccc5)cc4)cn3)oc2-c2ccccc2)cc1
emission maximum (in C1CCOC1): 458 nm | emission maximum (in C1COCCO1): 454 nm | emission maximum (in CC#N): 507 nm | emission maximum (in CC(C)=O): 495 nm | emission maximum (in CC(C)OC(C)C): 434 nm | emission maximum (in CCCCCC): 399 nm | emission maximum (in CCCCOCCCC): 431 nm | emission maximum (in CCN(CC)CC): 422 nm | emission maximum (in CCOC(C)=O): 456 nm | emission maximum (in CCOCC): 440 nm | emission maximum (in Cc1ccccc1): 435 nm | emission maximum (in c1ccccc1): 438 nm

emission maximum (in O): 432 nm
Structure (SMILES): O=C(O)CCCCCn1c2ccccc2c(=O)c2cc(F)ccc21

emission maximum (in ClCCl): 466 nm
Structure (SMILES): CCCCCCCCCCOc1ccc(C#Cc2cc3c(C#Cc4ccc(OCCCCCCCCCC)cc4)c(C#Cc4ccc(OCCCCCCCCCC)cc4)c4cc(C#Cc5ccc(OCCCCCCCCCC)cc5)cc5c(C#Cc6ccc(OCCCCCCCCCC)cc6)c(C#Cc6ccc(OCCCCCCCCCC)cc6)c(c2)c3c45)cc1

emission maximum (in CC#N): 334 nm | emission maximum (in CCOC(C)=O): 330 nm | emission maximum (in CO): 338 nm
Structure (SMILES): COC(=O)C[C@H](Cc1c[nH]c2ccccc12)NC(=O)[C@H](CC(=O)N[C@@H](CC1=CCc2ccccc21)C(=O)OC)NC(=O)[C@H](Cc1c[nH]c2ccccc12)NC(=O)OC(C)(C)C
